One data set in a line: Acute toxicity, mouse. The format is in vivo. Conditions: in vivo, po, read-out: Presumed LD50. The procedure: (§1) The acute toxicity of the compounds of the invention was examined by the following method.
(§2) Male ddy-strain 5-week old mice and male Wistar-strain 8 week old rats, five per group, were used as experimental animals. Each of the compounds was dissolved in saline and administered perorally, and the toxicity of the compound was assessed 24 hours after the administration.

The next data set has as its system mice. The experiment in a line: Acute toxicity, mouse. The format is in vivo. The note with it: 24 hours. The procedure:
as §1, §2

Data set [1] deals with mouse neuroblastoma cell line neuro-2a. Kind of data set: Activity on neuro-2a, cells with outgrown neurites. It is filed as cell-based. The method, boiled down: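 Mouse neuro-2a cells in DMEM with FCS exposed to compounds for 24 h (up to 6 concentrations, triplicate runs), glutaraldehyde-fixed and methylene blue-stained. Proportion of cells bearing a neurite at least twice the cell's long diameter counted microscopically over ≥200 cells.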

For data set [2], the system named is rats with crushed sciatic nerves. The experiment in a line: Curative effect on rats with crushed sciatic nerves. The format is in vivo, rat (male Wistar). The procedure:
Curative effect on rats with crushed sciatic nerves:
The curing effect of the compound (I) of the invention was tested on rats having crushed scietic nerves as a model of peripheral nervous disorder using (1) a change in the action of the hind paw with the crushed sciatic nerves and (2) a change in the weight of the muscle as an index of the course of degeneration and regeneartion of peripheral nerves.
In the experiment, male Wistar rats (6 weeks old), seven per group, were used. The sciatic nerves were crushed by a method similar to the method of Yamatsu et al. (see Kiyomi Yamatsu, Takenori Kaneko, Akifumi Kitahara and Isao Ohkawa, Journal of Japanese Pharmacological Society, 72, 259-268 (1976) and the method of Hasegawa et al. (see Kazuo Hasegawa, Naoji Mikuni and Yutaka Sakai, Journal of Japanese Pharmacological Society, 74, 721-734 (1978). Specifically, under anesthesia with pentobarbital (40 mg/kg, i.p.), the left side sciatic nerve was exposed at the femur and that site of the exposed scietic nerve which was 5 mm to the center from the branched part between the N. tibialis and the N. suralis was crushed using a modified artery, klomme, having a width of 2 mm and a gap of 0.1 mm. After the operation, the rats were assigned to the test groups at random.
Compound No. 408 was selected as the compound (I) of the invention and intraperitoneally administered to the rats once a day from the day of operation to the 22nd day. A group to which mecobalamin (made by Gedeon Richter Ltd.) was administered and a group to which 0.9% saline was administered were used as controls. The following items were measured with the lapse of time (on the 1st, 4th, 7th, 10th, 14th, 17th, 21st, and 23rd days after the crushing of the scietic nerves).
(1) Change in the action of the side of the hind paw with the crushed scietic nerve:
By a method similar to the method of Hasegawa [Hasegawa, K., Experientia, 34, 750-751 (1978)], the distance between the first and fifth digits of the hind paw was measured.
The ratio of the measured distance to the normal distance was calculated and expressed in percentage (%).
(2) Change in the weight of muscle
It is known that removal of a nerve or its disorder causes atrophy of the muscle which is under its control, and the atrophy is gradually cured by re-control by the nerve. For this reason, a change in the weight of the muscle, which is quantitative, was selected as an index. Twenty-three days after the operation, the soleus muscles of both sides of paws were extracted under anesthesia with pentobarbital, and their weights were measured. The ratio of the weight of the soleus muscle on the crushed side to that of normal side was calculated and expressed in percentage (%).

Where [3] appears, read: Table 3 Run No. 2, 0.1 mM, control 1.9 ± 0.9.
The mark [4] stands for this setting: Table 3 Run No. 4, 0.1 mM, control 3.1 ± 0.2.
The mark [5] stands for this setting: Table 3 Run No. 4, 0.5 mM, control 3.1 ± 0.2.
[6] abbreviates: Table 3 second Run No. 5, 0.3 mM, control 4.5 ± 0.3.
The mark [7] stands for this setting: Table 3 second Run No. 5, 0.5 mM, control 4.5 ± 0.3.

Where two headings read alike, the source gives them in different places.

The record followed here is patent US4959368A, “Therapeutic agent for neurological diseases” (Mitsui Petrochemical Industries Ltd., priority 1986, dated 1990).

As a reminder, the LD50 is the dose expected to kill half of the subjects tested. With `CCOC(=O)c1cnc(N2CCNCC2)nc1N` [Compound 120], in “Acute toxicity, mouse” (Table 6, p.o.), the LD50 at 24 h lay within 550 to 1000 mg/kg. For the same compound, the “Number of dead animals/number of test animals” value is 0/5 in the data set with mice (Table 6, 300 mg/kg p.o.); 1/5 in the data set on mice (Table 6, 500 mg/kg p.o.); 4/5 in the data set on mice (Table 6, 1000 mg/kg p.o.). Besides, the “Cells having neurites with a length at least twice the long diameter of cell/total number of cells” value in data set [1] (setting [3]) came to 10.2 ± 3.7%; in data set [1] (Table 3 Run No. 10, 0.003 mM, control 1.7 ± 0.7), 2.6 ± 0.6%; in data set [1] (Table 3 Run No. 10, 0.1 mM, control 1.7 ± 0.7), 6.5 ± 1.7%.

On to `CCCCOc1ccnc(N2CCNCC2)n1` [Compound 128], for which, in the data set “Acute toxicity, mouse” (Table 6, p.o.), the LD50 at 24 h is 300 to 550 mg/kg. Further, the “Number of dead animals/number of test animals” value is 0/5 with mice (Table 6, 300 mg/kg p.o.); 3/5 in the data set with mice (Table 6, 500 mg/kg p.o.); 4/5 in the data set on mice (Table 6, 1000 mg/kg p.o.). The “Cells having neurites with a length at least twice the long diameter of cell/total number of cells” value was 4.4 ± 0.7% in data set [1] (Table 3 Run No. 1, 0.028 μM, control 2.2 ± 0.8); 3.4 ± 0.6% in data set [1] (Table 3 Run No. 1, 0.29 μM, control 2.2 ± 0.8); 5.2 ± 0.9% in data set [1] (Table 3 Run No. 1, 28 μM, control 2.2 ± 0.8).

With `CCOC(=O)c1cnc(N2CCNCC2)nc1C(=O)OCC` [Compound 144], the LD50 at 24 h in “Acute toxicity, mouse” (Table 6, p.o.) fell in the range of 550 to 1000 mg/kg. The “Number of dead animals/number of test animals” value in the data set with mice (Table 6, 300 mg/kg p.o.) was 0/5; in the data set with mice (Table 6, 500 mg/kg p.o.), 0/5; with mice (Table 6, 1000 mg/kg p.o.), 3/5. Besides, the “Cells having neurites with a length at least twice the long diameter of cell/total number of cells” value in data set [1] (setting [3]) was found to be 9.9 ± 1.5%; in data set [1] (Table 3 Run No. 2, 0.3 mM, control 1.9 ± 0.9) it was 19.4 ± 3.2%.

As to `CN1C(=O)Cc2cnc(N3CCNCC3)nc21` [Compound 406], the LD50 at 24 h in the data set “Acute toxicity, mouse” (Table 7, p.o.) was greater than 1000 mg/kg. The “Number of dead animals/number of test animals” value in the data set on mice (Table 7, 1000 mg/kg p.o., 1000 mg/kg) was 1/5. Also, the “Cells having neurites with a length at least twice the long diameter of cell/total number of cells” value in data set [1] (setting [4]) was 16.2 ± 3.7%; in data set [1] (Table 3 Run No. 4, 0.3 mM, control 3.1 ± 0.2), 29.9 ± 2.6%; in data set [1] (setting [5]), 44.8 ± 0.8%; in data set [1] (Table 3 Run No. 7, 0.1 mM, control 2.5 ± 0.7), 10.3 ± 1.6%; in data set [1] (Table 3 Run No. 7, 0.3 mM, control 2.5 ± 0.7), 22.6 ± 2.2%; in data set [1] (Table 3 Run No. 7, 0.5 mM, control 2.5 ± 0.7), 40.2 ± 3.4%. Moreover, the “Cells having neurites with a length at least twice the long diameter of cell/total number of cells” value is listed as 7.6 ± 1.8% in data set [1] (Table 3 second Run No. 5, 0.03 mM, control 4.5 ± 0.3); 18.4 ± 3.0% in data set [1] (setting [6]); 32.4 ± 4.3% in data set [1] (setting [7]).

Take `O=C1Cc2cnc(N3CCNCC3)nc2N1` [Compound 424]: in the data set “Acute toxicity, mouse” (Table 7, p.o.), the LD50 at 24 h was greater than 1000 mg/kg. In the data set on mice (Table 7, 1000 mg/kg p.o.), the “Number of dead animals/number of test animals” value is recorded as 0/5. Besides, the “Cells having neurites with a length at least twice the long diameter of cell/total number of cells” value came out at 12.6 ± 1.1% in data set [1] (Table 3 first Run No. 5, 0.5 mM, no control given) and 27.1 ± 2.1% in data set [1] (Table 3 first Run No. 5, 1 mM, no control given).

For `COCCN1C(=O)Cc2cnc(N3CCNCC3)nc21` [Compound 428], the LD50 at 24 h in the data set “Acute toxicity, mouse” (Table 7, p.o.) was greater than 1000 mg/kg. The “Number of dead animals/number of test animals” value in the data set with mice (Table 7, 1000 mg/kg p.o.) is on record as 0/5. Moreover, the “Cells having neurites with a length at least twice the long diameter of cell/total number of cells” value in data set [1] (Table 3 Run No. 3, 0.03 mM, control 3.9 ± 0.3) came to 6.7 ± 1.5%; in data set [1] (Table 3 Run No. 3, 0.3 mM, control 3.9 ± 0.3), 17.3 ± 0.8%; in data set [1] (Table 3 Run No. 3, 1 mM, control 3.9 ± 0.3), 30.1 ± 2.4%; in data set [1] (setting [4]), 13.7 ± 2.1%; in data set [1] (setting [5]), 27.2 ± 3.1%; in data set [1] (Table 3 Run No. 4, 1 mM, control 3.1 ± 0.2), 29.1 ± 2.4%. In addition, the “Cells having neurites with a length at least twice the long diameter of cell/total number of cells” value came out at 9.8 ± 2.3% in data set [1] (setting [6]); 14.1 ± 1.5% in data set [1] (setting [7]); 15.6 ± 1.0% in data set [1] (Table 3 second Run No. 5, 1 mM, control 4.5 ± 0.3).

Consider `Cc1nc(N2CCNCC2)nc2c1CC(=O)N2C` [Compound 468], for which, in the data set “Acute toxicity, mouse” (Table 7, p.o.), the 50% lethal dose (LD50) at 24 h was greater than 1000 mg/kg. Further, in the data set on mice (Table 7, 1000 mg/kg p.o.), the “Number of dead animals/number of test animals” value is 1/5. In addition, the “Cells having neurites with a length at least twice the long diameter of cell/total number of cells” value in data set [1] (Table 3 Run No. 10, 0.3 mM, control 1.7 ± 0.7) stood at 5.8 ± 0.8%; in data set [1] (Table 3 Run No. 10, 1 mM, control 1.7 ± 0.7), 15.7 ± 0.5%.

Regarding `CC(C)n1ccc2nc(N3CCNCC3)ncc2c1=O` [Compound 713], in “Acute toxicity, mouse” (Table 6, p.o.), the LD50 at 24 h is greater than 1000 mg/kg. Further, the “Number of dead animals/number of test animals” value with mice (Table 6, 300 mg/kg p.o.) was 0/5; in the data set with mice (Table 6, 500 mg/kg p.o.), 0/5; with mice (Table 6, 1000 mg/kg p.o.) it was 2/5.

Turning to `CCCn1ccc2nc(N3CCNCC3)ncc2c1=O` [Compound 715], in “Acute toxicity, mouse” (Table 6, p.o.), the LD50 at 24 h was in the range of 550 to 1000 mg/kg. In addition, the “Number of dead animals/number of test animals” value is on record as 0/5 with mice (Table 6, 300 mg/kg p.o.); 0/5 in the data set on mice (Table 6, 500 mg/kg p.o.); 4/5 with mice (Table 6, 1000 mg/kg p.o.).

As to `CCn1cc(C=O)c2nc(N3CCNCC3)ncc2c1=O` [Compound 744], the LD50 at 24 h in the data set “Acute toxicity, mouse” (Table 6, p.o.) was in the range of 550 to 1000 mg/kg. Besides, the “Number of dead animals/number of test animals” value in the data set with mice (Table 6, 500 mg/kg p.o.) is listed as 0/5; in the data set on mice (Table 6, 1000 mg/kg p.o.) it was 3/5.

As for `C/C1=C2/[N-][C@H]([C@H](CC(N)=O)[C@@]2(C)CCC(=O)NC[C@@H](C)OP(=O)([O-])O[C@H]2[C@@H](O)[C@@H](n3cnc4cc(C)c(C)cc43)O[C@@H]2CO)[C@]2(C)N=C(/C(C)=C3N=C(/C=C4N=C1[C@@H](CCC(N)=O)C\4(C)C)[C@@H](CCC(N)=O)[C@]\3(C)CC(N)=O)[C@@H](CCC(N)=O)[C@]2(C)CC(N)=O.[CH3-].[Co+3]` [Mecobalamin, mecobalamin, reference compound], the “Rate of recovery of the interdigit distance” value was determined as 79.1 ± 2.6% in data set [2] (21st day, 0.5 mg/kg ip, saline 62.0 ± 2.4, ***P < 0.001) and 88.3 ± 4.0% in data set [2] (23rd day, 0.5 mg/kg ip, saline 71.1 ± 3.4, **P < 0.01). For the same compound, in data set [2] (in words, 21st day), the “interdigit distance, recovery versus saline” value is on record as “apparent tendency to quicker recovery”. In addition, in data set [2] (soleus muscle, 23rd day, 0.5 mg/kg ip, saline 51.8 ± 1.2), the “Rate of recovery in muscle weight” value is given as 55.0 ± 3.5%.
